According to patent publication US9820972B2, “Antiviral compounds highly effective as HCV-NS5A inhibitor” (priority 2013, dated 2017):

tested on: GT-1a of NS5A Replicon; assay: HCV double reporter gene (Renilla luciferase) replicon assay, GT-1a; assay type: cell-based, Hepatitis C virus (HCV); settings: GT-1a replicon; class symbols; read-out: EC50 For GT-1a of NS5A Replicon
Procedure: Antiviral Assay for Inhibition Activity (EC50):
The study is completed by a new constructed double reporter genes replicon assay system, the capacity of viral replicon in infected cell is determined by detecting the reporter gene Renilla luciferase. The relationship of reporter genes, HCV RNA replicon and viral proteins is well linear. 8 gradient concentrations for 2-fold dilution, 3 wells, 3 times repetition and 1 or 2 control drugs are set to finally determine EC50 of compound.
THF was distilled from sodium metal and benzophenone. DCM, pentane and hexane were distilled form calcium hydride. Special raw material and intermediate in the invention were ordered by contract synthesis from Zannan SciTech Co., Let in China, others reagents were purchased from Shanghai reagent company, Aldrich, Acros etc. As intermediates or products during the synthesis is not required for the reaction and other tests the next step, the synthesis is repeated until a sufficient number of times. The invention of the prepared compounds of […] (HCV NS5A) inhibitory activity test was performed by CRO service units such as WuXi AppTec etc.

Row | SMILES | EC50
1 | COC(=O)NC(C(=O)N1CC=C[C@H]1c1ncc(-c2ccc(-c3ccc(-c4cnc([C@@H]5CCCN5C(=O)[C@@H](NC(=O)OC)C(C)C)[nH]4)cc3)cc2)[nH]1)C1CCCCC1 (stereo partly drawn) [Compound 6dj] | 1 to 49.9 nM

same assay, conditions: Hepatitis C virus, GT1A, GT-1a replicon; class symbols; read-out: EC50 For GT-1a of NS5A Replicon

Row | SMILES | EC50
2 | COC(=O)N[C@H](C(=O)N1CC(OC(=O)N2Cc3ccc4c(c3C2)OCO4)CC1c1nc(-c2ccc(-c3ccc(-c4c[nH]c([C@@H]5CC6(CC6)CN5C(=O)[C@@H](NC(=O)OC)C(C)C)n4)cc3)cc2)c[nH]1)C(C)C (stereo partly drawn) [Compound 6an] | 0.001 to 0.999 nM
3 | COC(=O)N[C@H](C(=O)N1CCC(O)[C@H]1c1ncc(-c2ccc(-c3ccc(-c4cnc([C@@H]5C=CCN5C(=O)[C@@H](NC(=O)OC)C(C)C)[nH]4)cc3)cc2)[nH]1)C(C)C (stereo partly drawn) [Compound 6dr] | 0.001 to 0.999 nM
4 | CC(C)[C@H](NC(=O)OC1CCCC1)C(=O)N1CCC[C@H]1c1nc(-c2ccc(-c3ccc(-c4cnc([C@@H]5C[C@@H](OC(=O)N6Cc7cccc(F)c7C6)CN5C(=O)[C@@H](NC(=O)OC5CCCC5)C(C)C)[nH]4)cc3)cc2)c[nH]1 [Compound 6v] | > 50 nM
5 | COC(=O)N[C@H](C(=O)N1CN(C(=O)N2Cc3ccccc3C2)CC1c1nc(-c2ccc(-c3ccc(-c4c[nH]c([C@@H]5CCCN5C(=O)[C@@H](NC(=O)OC)C(C)C)n4)cc3)cc2)c[nH]1)C(C)C (stereo partly drawn) [Compound 6aq] | 0.001 to 0.999 nM
6 | CC(C)[C@H](NC(=O)OC1CCCC1)C(=O)N1CC=CC1c1ncc(-c2ccc(-c3ccc(-c4c[nH]c([C@@H]5C=CCN5C(=O)[C@@H](NC(=O)OC5CCCC5)C(C)C)n4)cc3)cc2)[nH]1 (stereo partly drawn) [Compound 6bf] | > 50 nM
7 | COC(=O)N[C@H](C(=O)N1CC=C[C@H]1c1nc(-c2csc3c(-c4ccc(-c5c[nH]c(C6CCCN6C(=O)[C@H](NC(=O)OC)c6ccccc6)n5)cc4)csc23)c[nH]1)C(C)C (stereo partly drawn) [Compound 6fy] | 0.001 to 0.999 nM
8 | COC(=O)N[C@H](C(=O)N1CC(OC(=O)N2Cc3cc4c(cc3C2)OCO4)CC1c1nc(-c2ccc3c(ccc4cc(-c5c[nH]c([C@@H]6CCCN6C(=O)[C@@H](NC(=O)OC)C(C)C)n5)ccc43)c2)c[nH]1)C(C)C (stereo partly drawn) [Compound 6bt] | 0.001 to 0.999 nM
9 | COC(=O)N[C@H](C(=O)N1CCCC1c1nc2cc(-c3ccc4c(c3)C(F)(F)c3cc(-c5c[nH]c([C@@H]6C=CCN6C(=O)[C@@H](NC(=O)OC)C(C)C)n5)ccc3-4)ccc2[nH]1)C(C)C (stereo partly drawn) [Compound 6bq] | 0.001 to 0.999 nM
10 | COC(=O)N[C@H](C(=O)N1C[C@@H](OC(=O)N2Cc3ccc4c(c3C2)OCO4)CC1c1nc(-c2ccc(-c3ccc(-c4c[nH]c([C@@H]5COCCN5C(=O)[C@@H](NC(=O)OC)C(C)C)n4)cc3)cc2)c[nH]1)C(C)C (stereo partly drawn) [Compound 6ai] | 0.001 to 0.999 nM
11 | COC(=O)N[C@H](C(=O)N1CN(C(=O)N2Cc3cc4c(cc3C2)OCO4)CC1c1nc(-c2ccc(-c3ccc(-c4c[nH]c([C@@H]5CC6(CC6)CN5C(=O)[C@@H](NC(=O)OC)C(C)C)n4)cc3)cc2)c[nH]1)C(C)C (stereo partly drawn) [Compound 6am] | 0.001 to 0.999 nM
12 | COC(=O)N[C@H](C(=O)N1CN(C(=O)N2Cc3cc4c(cc3C2)OCO4)CC1c1nc(-c2cc3sc(-c4ccc(-c5c[nH]c([C@@H]6CCCN6C(=O)[C@@H](NC(=O)OC)C(C)C)n5)cc4)cc3s2)c[nH]1)C(C)C (stereo partly drawn) [Compound 6fa] | 0.001 to 0.999 nM
13 | COC(=O)N[C@H](C(=O)N1CCC[C@H]1c1ncc(-c2ccc(-c3ccc(-c4cnc([C@@H]5CN(C(=O)N6Cc7ccc(OC)c(OC)c7C6)CN5C(=O)[C@@H](NC(=O)OC)C(C)C)[nH]4)cc3)cc2)[nH]1)C(C)C [Compound 6cq] | 1 to 49.9 nM
14 | COC(=O)N[C@H](C(=O)N1CC=C[C@H]1c1ncc(-c2ccc(-c3ccc(-c4cnc([C@@H]5CNCN5C(=O)[C@@H](NC(=O)OC)C(C)C)[nH]4)cc3)cc2)[nH]1)C(C)C [Compound 6cv] | 0.001 to 0.999 nM
15 | CC(C)[C@H](NC(=O)OC(C)(C)C)C(=O)N1CCC[C@H]1c1nc(-c2ccc(-c3ccc(-c4cnc([C@@H]5C[C@@H](OC(=O)N6Cc7ccc8c(c7C6)OCO8)CN5C(=O)[C@@H](NC(=O)OC(C)(C)C)C(C)C)[nH]4)cc3)cc2)c[nH]1 [Compound 6b] | > 50 nM
16 | COC(=O)N[C@H](C(=O)N1CC=C[C@H]1c1ncc(-c2ccc(-c3ccc(-c4cnc([C@@H]5CN(C(=O)OC)CN5C(=O)[C@@H](NC(=O)OC)C(C)C)[nH]4)cc3)cc2)[nH]1)C(C)C [Compound 6db] | 0.001 to 0.999 nM
17 | CC(C)(C)OC(=O)N[C@H](C(=O)N1CCC[C@H]1c1nc(-c2ccc(-c3ccc(-c4cnc([C@@H]5C[C@@H](OC(=O)N6Cc7ccc8c(c7C6)OCO8)CN5C(=O)[C@@H](NC(=O)OC(C)(C)C)C(C)(C)C)[nH]4)cc3)cc2)c[nH]1)C(C)(C)C [Compound 6c] | > 50 nM
18 | COC(=O)N[C@H](C(=O)N1CCCC1c1nc(-c2ccc(-c3ccc(-c4c[nH]c([C@@H]5COCCN5C(=O)[C@@H](NC(=O)OC)C(C)C)n4)cc3)cc2)c[nH]1)C(C)C (stereo partly drawn) [Compound 6ag] | 0.001 to 0.999 nM
19 | COC(=O)N[C@@H](C(=O)N1CC=C[C@H]1c1ncc(-c2ccc(-c3cc4sc(-c5cnc([C@@H]6CCCN6C(=O)[C@H](NC(=O)OC)c6ccccc6)[nH]5)cc4s3)cc2)[nH]1)c1ccccc1 [Compound 6fh] | 0.001 to 0.999 nM
20 | COC(=O)N[C@H](C(=O)N1CC=C[C@H]1c1ncc(-c2ccc(-c3ccc(-c4cnc([C@@H]5C=CCN5C(=O)[C@@H](NC(=O)OC)C5CCCCC5)[nH]4)cc3)cc2)[nH]1)C1CCCCC1 [Compound 6dm] | 0.001 to 0.999 nM
21 | CC(C)[C@H](NC(=O)OC1CCCC1)C(=O)N1CCC[C@H]1c1nc(-c2ccc(-c3ccc(-c4cnc([C@@H]5C[C@@H](OC(=O)N6Cc7ccc8c(c7C6)OCO8)CN5C(=O)[C@@H](NC(=O)OC5CCCC5)C(C)C)[nH]4)cc3)cc2)c[nH]1 [Compound 6h] | > 50 nM
22 | CC(C)[C@H](NC(=O)OC(C)(C)C)C(=O)N1CCC[C@H]1c1nc(-c2ccc(-c3ccc(-c4cnc([C@@H]5C[C@@H](OC(=O)N6Cc7cc8c(cc7C6)OCO8)CN5C(=O)[C@@H](NC(=O)OC(C)(C)C)C(C)C)[nH]4)cc3)cc2)c[nH]1 [Compound 6j] | > 50 nM
23 | COC(=O)NC(C(=O)N1CC=C[C@H]1c1ncc(-c2ccc(-c3ccc(-c4cnc([C@@H]5CCCN5C(=O)[C@@H](NC(=O)OC)C(C)C)[nH]4)cc3)cc2)[nH]1)C1CCCC1 (stereo partly drawn) [Compound 6dh] | 0.001 to 0.999 nM
24 | COC(=O)N[C@H](C(=O)N1CN(C(=O)N2Cc3cc4c(cc3C2)OCO4)CC1c1nc(-c2ccc(-c3ccc(-c4c[nH]c([C@@H]5CCCN5C(=O)[C@@H](NC(=O)OC)C(C)C)n4)cc3)cc2)c[nH]1)C(C)C (stereo partly drawn) [Compound 6af] | 0.001 to 0.999 nM
25 | COC(=O)N[C@H](C(=O)N1CN(C(=O)N2Cc3ccc(Cl)cc3C2)CC1c1nc(-c2ccc(-c3ccc(-c4c[nH]c([C@@H]5CCCN5C(=O)[C@@H](NC(=O)OC)C(C)C)n4)cc3)cc2)c[nH]1)C(C)C (stereo partly drawn) [Compound 6au] | 0.001 to 0.999 nM

same assay, conditions: Hepatitis C virus, GT1A, read-out: EC50 For GT-1a of NS5A Replicon

Row | SMILES | EC50
26 | CC(C)[C@H](NC(=O)OC1CCCC1)C(=O)N1C[C@H](OC(=O)N2Cc3cc4c(cc3C2)OCO4)C[C@H]1c1nc(-c2ccc(-c3ccc(-c4cnc([C@@H]5C[C@@H](OC(=O)N6Cc7cc8c(cc7C6)OCO8)CN5C(=O)[C@@H](NC(=O)OC5CCCC5)C(C)C)[nH]4)cc3)cc2)c[nH]1 [Compound 6q] | > 50 nM
27 | CC(C)[C@H](NC(=O)OC1CCCC1)C(=O)N1C[C@H](OC(=O)N2Cc3ccc4c(c3C2)OCO4)C[C@H]1c1nc(-c2ccc(-c3ccc(-c4cnc([C@@H]5C[C@@H](OC(=O)N6Cc7ccc8c(c7C6)OCO8)CN5C(=O)[C@@H](NC(=O)OC5CCCC5)C(C)C)[nH]4)cc3)cc2)c[nH]1 [Compound 6g] | > 50 nM
